In brackets after ≈: the same amount, converted by molar mass. Activity calls are given as the source filed them. The rule behind the calls is not given here.
Assays:
Staphylococcus aureus [1] = test: Antibacterial activity against Staphylococcus aureus ATCC 29213 after 24 hrs by microdilution method; type: functional; conditions: ATCC 29213, 24 h
Pseudomonas aeruginosa = test: Antibacterial activity against Pseudomonas aeruginosa ATCC 27853 after 24 hrs by microdilution method; type: functional, organism-based
Staphylococcus aureus [2] = test: Antibacterial activity against methicillin-resistant Staphylococcus aureus after 24 hrs by microdilution method; type: functional
Enterococcus faecalis [3] = test: Antibacterial activity against vancomycin-resistant Enterococcus faecalis after 24 hrs by microdilution method; type: functional
Escherichia coli = test: Antibacterial activity against Escherichia coli ATCC 25922 after 24 hrs by microdilution method; type: functional, organism-based
Enterococcus faecalis [4] = test: Bactericidal activity against vancomycin-resistant Enterococcus faecalis after 24 hrs; type: functional
Staphylococcus aureus [5] = test: Bactericidal activity against Staphylococcus aureus ATCC 29213 after 24 hrs; type: functional; conditions: ATCC 29213, 24 h
Staphylococcus aureus [6] = test: Bactericidal activity against methicillin-resistant Staphylococcus aureus after 24 hrs; type: functional

| SMILES | MIC (Staphylococcus aureus [1]) [µg/mL] | Activity (Pseudomonas aeruginosa) | MIC (Staphylococcus aureus [2]) [µg/mL] | MIC (Enterococcus faecalis [3]) [µg/mL] | Activity (Escherichia coli) | MBC (Enterococcus faecalis [4]) [µg/mL] | MBC (Staphylococcus aureus [5]) [µg/mL] | MBC (Staphylococcus aureus [6]) [µg/mL] |
| --- | --- | --- | --- | --- | --- | --- | --- | --- |
| COc1ccc(C(c2c[nH]c3ccc(Br)cc23)c2c[nH]c3ccc(Br)cc23)c(OC)c1 | 256 (≈ 474 µM) | inactive | 256 (≈ 474 µM) | > 256 | inactive |  |  |  |
| COc1ccc(C(c2c[nH]c3ccc(Br)cc23)c2c[nH]c3ccc(Br)cc23)cc1 | 16 (≈ 31.4 µM) | inactive | 32 (≈ 62.7 µM) | 32 (≈ 62.7 µM) | inactive | 32 (≈ 62.7 µM) | 32 (≈ 62.7 µM) | 32 (≈ 62.7 µM) |
| COc1ccc(Br)cc1C(c1c[nH]c2ccc(Br)cc12)c1c[nH]c2ccc(Br)cc12 | 128 (≈ 217 µM) | inactive | 256 (≈ 435 µM) | 256 (≈ 435 µM) | inactive |  |  |  |
| O=[N+]([O-])c1ccc2[nH]cc(C(c3ccc(F)cc3)c3c[nH]c4ccc([N+](=O)[O-])cc34)c2c1 | > 256 | inactive | > 256 | > 256 | inactive |  |  |  |
| CN(C)c1ccc(C(c2c[nH]c3ccc(Br)cc23)c2c[nH]c3ccc(Br)cc23)cc1 | 64 (≈ 122 µM) | inactive | 128 (≈ 245 µM) | 256 (≈ 489 µM) | inactive |  |  |  |
| CC(C)(c1c[nH]c2ccc(Br)cc12)c1c[nH]c2ccc(Br)cc12 | > 256 | inactive | > 256 | > 256 | inactive |  |  |  |
| Brc1ccc2[nH]cc(C(c3ccccc3)c3c[nH]c4ccc(Br)cc34)c2c1 | 256 (≈ 533 µM) | inactive | 256 (≈ 533 µM) | 256 (≈ 533 µM) | inactive |  |  |  |
| CCCC(c1c[nH]c2ccc(Br)cc12)c1c[nH]c2ccc(Br)cc12 | > 256 | inactive | > 256 | > 256 | inactive |  |  |  |
| CCCCCCCC(c1c[nH]c2ccc(Br)cc12)c1c[nH]c2ccc(Br)cc12 | > 256 | inactive | > 256 | > 256 | inactive |  |  |  |
| COc1ccc(C(c2c[nH]c3ccc(Br)cc23)c2c[nH]c3ccc(Br)cc23)cc1OC | 128 (≈ 237 µM) | inactive | 256 (≈ 474 µM) | 256 (≈ 474 µM) | inactive |  |  |  |
| COc1cccc(C(c2c[nH]c3ccc(Br)cc23)c2c[nH]c3ccc(Br)cc23)c1OC | 256 (≈ 474 µM) | inactive | 256 (≈ 474 µM) | > 256 | inactive |  |  |  |
| O=C(O)c1cn(C2CC2)c2cc(N3CCNCC3)c(F)cc2c1=O [CIPROFLOXACIN] | 0.25 (≈ 0.754 µM) |  |  | 64 (≈ 193 µM) |  | 64 (≈ 193 µM) | 0.5 (≈ 1.51 µM) | 32 (≈ 96.6 µM) |
| N#Cc1ccc2[nH]cc(C(c3ccc(O)cc3)c3c[nH]c4ccc(C#N)cc34)c2c1 | > 256 | inactive | > 256 | > 256 | inactive |  |  |  |
| CCCCCCCCC(c1c[nH]c2ccc(Br)cc12)c1c[nH]c2ccc(Br)cc12 | > 256 | inactive | > 256 | > 256 | inactive |  |  |  |
| c1ccc(C(c2c[nH]c3ccccc23)c2c[nH]c3ccccc23)cc1 | > 256 | inactive | > 256 | > 256 | inactive |  |  |  |
| CC(c1ccccc1)(c1c[nH]c2ccc(Br)cc12)c1c[nH]c2ccc(Br)cc12 | > 256 | inactive | > 256 | > 256 | inactive |  |  |  |
| COc1ccc(OC)c(C(c2c[nH]c3ccc(Br)cc23)c2c[nH]c3ccc(Br)cc23)c1 | 128 (≈ 237 µM) | inactive | 256 (≈ 474 µM) | > 256 | inactive |  |  |  |

Reference: ChEMBL document CHEMBL2429833, “A new class of bactericidal agents against S. aureus, MRSA and VRE derived from bisindolylmethane” (Med Chem Res, 2013)
